Values quoted from earlier work in US4202888A, “Readily enterally absorbable pharmaceutical compositions of cardiac glycosides and preparation thereof” (priority 1976, dated 1980).

Settings: for enteral absorbability (in words): background statement; for per se enteral absorbability: without partial glycerides

## C[C@H]1O[C@@H](O[C@H]2[C@@H](O)C[C@H](O[C@H]3[C@@H](O)C[C@H](O[C@H]4CC[C@@]5(C)[C@H](CC[C@@H]6[C@@H]5CC[C@]5(C)[C@@H](C7=CC(=O)OC7)CC[C@]65O)C4)O[C@@H]3C)O[C@@H]2C)C[C@H](O)[C@@H]1O [digitoxin]
  enteral absorbability (in words): absorbable completely

## C[C@H]1O[C@@H](O[C@H]2[C@@H](O)C[C@H](O[C@H]3[C@@H](O)C[C@H](O[C@H]4CC[C@@]5(C)[C@H](CC[C@@H]6[C@@H]5C[C@@H](O)[C@]5(C)[C@@H](C7=CC(=O)OC7)CC[C@]65O)C4)O[C@@H]3C)O[C@@H]2C)C[C@H](O)[C@@H]1O [digoxin]
  enteral absorbability (in words): to at least an acceptable degree

## CC1OC(OC2CC(O)C3(CO)C4C(O)CC5(C)C(C6=CC(=O)OC6)CCC5(O)C4CCC3(O)C2)C(O)C(O)C1O (stereo not drawn) [g-strophanthin]
  enteral absorbability (in words): insufficient enteral absorbability
  per se enteral absorbability: less than 5%
Between individuals
  factor of individual variation in enteral absorption: 10

## C[C@@H]1O[C@@H](O[C@@H]2C=C3CC[C@@H]4[C@H](CC[C@]5(C)[C@@H](c6ccc(=O)oc6)CC[C@]45O)[C@@]3(C)CC2)[C@H](O)[C@H](O)[C@H]1O [proscillaridin]
  enteral absorbability (in words): insufficient enteral absorbability
  per se enteral absorbability: less than 5%

## k-strophanthin
  enteral absorbability (in words): insufficient enteral absorbability
  per se enteral absorbability: less than 5%
